Key:
hSiglec-1 = target: T1, hSiglec-1 (Homo sapiens, UniProt Q9BZZ2); assay: direct ESI native mass spectrometry titration; assay type: binding
T1 construct: gene SIGLEC1; monomeric Siglec-1 fragment from CHO Lec1 cells

mSiglec-1 [1] = target: T2, mSiglec-1 (Mus musculus, UniProt Q62230); assay: direct ESI native mass spectrometry titration (no binding in liposome bead assay or ELISA)
T2 construct: gene Siglec1; monomeric Siglec-1 fragment from CHO Lec1 cells

mSiglec-1 [2] = target: T2, mSiglec-1; assay: direct ESI native mass spectrometry titration; assay type: binding

T2 sequence (Q62230 20-136 limits assumed): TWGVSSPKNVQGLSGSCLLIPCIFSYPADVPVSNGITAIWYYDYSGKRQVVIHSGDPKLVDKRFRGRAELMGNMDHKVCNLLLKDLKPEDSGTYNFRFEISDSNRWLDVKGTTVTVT
T1 sequence (Q9BZZ2 20-136 limits assumed): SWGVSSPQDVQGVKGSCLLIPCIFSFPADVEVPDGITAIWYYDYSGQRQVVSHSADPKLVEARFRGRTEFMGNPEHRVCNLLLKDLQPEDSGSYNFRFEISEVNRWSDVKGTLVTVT

| Kd (hSiglec-1) [µM] | Kd (mSiglec-1 [1]) [µM] | Kd (mSiglec-1 [2]) [µM] | Substance |
| --- | --- | --- | --- |
| 1500 | 2000 |  | GM1a oligosaccharide |
| 890 |  | 1200 | GM1b oligosaccharide |
